From PMC9077470 (RSC Advances, 2018)
≈ marks a conversion by molar mass, not a printed value.

What was measured:
[1] = Partition coefficients in n-octanol/phosphate buffer (pH 7.4); assay type: physicochemical; conditions: means ± SD, n = 3
Method: The phosphate buffer and octanol were mutually saturated at 20–22 °C before use. Samples were dissolved in the aqueous phase and the n-octanol/phosphate buffer mixtures were shaken for 24 h to reach a distribution equilibrium. The volumes of each phase were chosen so that the solute concentration in the aqueous phase, before and after distribution, could readily be measured using HPLC method. The partition coefficients (P) were calculated from the following equation: [drawing 1] where Ci and Cw represent the solute concentrations in the aqueous buffer phase before and after distribution, respectively, Vw represents the volume of the aqueous phase, and Vo is the volume of the octanol phase.[16]

[2] = no reference given; cited from earlier work
[3] = Aqueous solubility (equilibrium, distilled water); assay type: physicochemical; conditions: 25 °C, thermodynamic from solid, 25 ± 2 °C, means ± SD, n = 3, read-out: S (aqueous solubility)
Method: The mixtures were placed in an ultrasonic water bath for 10 min and then shaken for 24 h to establish a saturation equilibrium. Upon filtration, the filtrate was diluted with an appropriate amount of water and the mixture was analyzed by HPLC, the concentration of each compound in its saturated solution was calculated.

[4] = In vitro incubation with stomach contents of rats; assay type: in vitro ADME; conditions: rat stomach contents homogenate, pH 1.2, 37 °C, after 2 h of incubation
Method: (§1) After anesthetized with diethyl ether, rats were sacrificed and their contents of stomach and small intestine were collected and homogenized respectively, the homogenate was diluted with buffer solution (pH 1.2 for stomach contents, pH 6.8 for small intestine contents) to 20% (w/v). […] After 0.25, 0.5, 1.0, 1.5, 2.0, 3.0 and 4.0 h of incubation, 200 μL of samples were collected and replaced with the same volume of blank homogenate, then samples were centrifuged at 13 000 rpm for 5 min, filtered with membrane filter, and analyzed by HPLC. The residual contents of each prodrug in homogenate were calculated and the hydrolysis curves were drawn.

[5] = In vitro incubation with small intestine contents of rats; assay type: in vitro ADME; conditions: rat small intestine contents homogenate, pH 6.8, 37 °C, after 4 h of incubation
Method: as §1

[6] = In vivo incubation in the colon of rats; conditions: injected into tied rat colon, 6 h
Method: 6 hours later, rats were sacrificed and their colon contents were separated and homogenized in 40 mL of phosphate buffer (pH 7.4). The homogenate was sonicated for 5 min and centrifuged at 13 000 rpm for 5 min, then 0.2 mL of the supernatant was collected and mixed with 0.8 mL of methanol. Finally, samples were centrifuged, filtered and analyzed by HPLC. The residual contents of each prodrug in colon contents were calculated, and the hydrolysis ratio was calculated by the following equation: [drawing 2] where Wr is the residual amount of prodrugs in the colon contents and Wi is the initial amount of prodrugs that administered to rats.

[7] = system: TNBS-induced experimental colitis; assay: TNBS-induced colitis: body weight, survival rates, overall effect; assay type: in vivo, mice; conditions: TNBS colitis mice; Ols-DB as enema, others i.g.
Method: Colitis was induced according to the previous study.[18,19] Briefly, after 12 h of fasting, mice were anesthetized with intraperitoneal pentobarbital sodium (35 mg kg^-1) before the induction of colitis. 0.1 mL of 50% (v/v) ethanol contained 2.5% (v/v) TNBS was instilled into the colon 3.5-4 cm from the anus by a gavage needle. The mice were kept in a head-down position for 30 s to prevent leakage of the intracolonic instillation. Mice in the control group received normal saline instead of TNBS solution, a physical mixture of 5-ASA and sodium butyrate was used as the positive control. […] The treatments were given once daily for 5 continuous days starting 24 hours after the induction of colitis. After the induction of colitis, the body weight of each mice was recorded daily, and the curves of weight changes for each group were drawn to evaluate the TNBS-induced colitis. Meanwhile, the death of mice in each group was recorded daily and the final survival rates of mice were calculated.

[8] = system: TNBS-induced experimental colitis; assay: TNBS-induced colitis: disease activity index (DAI); assay type: in vivo, mice; conditions: vs positive control (5-ASA + sodium butyrate)
Method: Colitis was induced according to the previous study.[18,19] Briefly, after 12 h of fasting, mice were anesthetized with intraperitoneal pentobarbital sodium (35 mg kg^-1) before the induction of colitis. 0.1 mL of 50% (v/v) ethanol contained 2.5% (v/v) TNBS was instilled into the colon 3.5-4 cm from the anus by a gavage needle. The mice were kept in a head-down position for 30 s to prevent leakage of the intracolonic instillation. Mice in the control group received normal saline instead of TNBS solution, a physical mixture of 5-ASA and sodium butyrate was used as the positive control. […] The treatments were given once daily for 5 continuous days starting 24 hours after the induction of colitis. DAI is ranged from 0 to 4 and it is the sum of scores given for body weight loss, stool consistency and presence or absence of fecal blood. The fecal occult blood of mice was evaluated by the ο-tolidine method.[22] A small amount of feces samples were smeared on a white plate. 2-3 drops of ο-tolidine solution (10 g L^-1, dissolved in acetic acid) were added into samples and mixed evenly. Then 2-3 drops of 3% H2O2 solution were added into the mixture, meanwhile, start the time and observe immediately. Scored as: normal, weak positive, green to light green developing over 2 min; +, positive, greenish-blue to deep green developing within 1 min; ++, positive, blue to bluish-green developing within 5-20 s; +++, very strong positive, intense blue color developing immediately.[23]

[9] = system: MPO activity in colonic tissues; assay: TNBS-induced colitis: MPO activity in colonic tissues; assay type: in vivo, mice
Method: Colitis was induced according to the previous study.[18,19] Briefly, after 12 h of fasting, mice were anesthetized with intraperitoneal pentobarbital sodium (35 mg kg^-1) before the induction of colitis. 0.1 mL of 50% (v/v) ethanol contained 2.5% (v/v) TNBS was instilled into the colon 3.5-4 cm from the anus by a gavage needle. The mice were kept in a head-down position for 30 s to prevent leakage of the intracolonic instillation. Mice in the control group received normal saline instead of TNBS solution, a physical mixture of 5-ASA and sodium butyrate was used as the positive control. […] The treatments were given once daily for 5 continuous days starting 24 hours after the induction of colitis. […] Samples were freeze-thawed three times, after which sonication was repeated. Homogenates were then centrifuged at 13 000 rpm for 30 min and MPO was extracted from the resulting supernatant.[25] MPO activity was measured by the assay kit according to its provider's instructions.

[10] = system: SOD, MDA, GSH, GSH-Px in colonic tissues; assay: TNBS-induced colitis: levels of SOD, MDA, GSH and GSH-Px in colonic tissues; assay type: in vivo, mice; conditions: vs TNBS group, p < 0.01
Method: Colitis was induced according to the previous study.[18,19] Briefly, after 12 h of fasting, mice were anesthetized with intraperitoneal pentobarbital sodium (35 mg kg^-1) before the induction of colitis. 0.1 mL of 50% (v/v) ethanol contained 2.5% (v/v) TNBS was instilled into the colon 3.5-4 cm from the anus by a gavage needle. The mice were kept in a head-down position for 30 s to prevent leakage of the intracolonic instillation. Mice in the control group received normal saline instead of TNBS solution, a physical mixture of 5-ASA and sodium butyrate was used as the positive control. […] The treatments were given once daily for 5 continuous days starting 24 hours after the induction of colitis. Colon tissue samples were homogenized with normal saline, the homogenate (10%, w/w) was centrifuged at 13 000 rpm for 15 min, and the resulting supernatant was diluted to 1% (w/w) for further assay. The protein levels of the colon homogenate were detected by a BCA protein assay kit. Then the activities of SOD and GSH-Px, and the levels of MDA and GSH of samples in each group were measured by the assay kits according to the provider's instructions.

| P (partition coefficient) [1] | logP at 24 h [1] | solubility at 24 h [3] | residual content of prodrug in stomach contents [4] | residual content of prodrug in small intestine contents [5] | hydrolysis ratio after in vivo incubation in rat colons [6] | Structure (SMILES) | half-time (t1/2) [2] | therapeutic effects on the TNBS-induced UC (overall) [7] | DAI, compared with positive control [8] | MPO activity in colonic tissues ([9]; vs TNBS group, p < 0.01) | MPO activity, compared with positive control ([9]; vs positive control) | GSH-Px activities in the colon [10] | MDA levels in the colon [10] | SOD activities in the colon [10] |
| --- | --- | --- | --- | --- | --- | --- | --- | --- | --- | --- | --- | --- | --- | --- |
| 4.47 ± 0.21 | 0.65 ± 0.02 | – | – | – | – | Nc1ccc(O)c(C(=O)O)c1 [5-ASA, 5-aminosalicylic acid, reference compound] | – | – | – | – | – | – | – | – |
| – | – | – | – | – | – | CCCC(=O)O [Butyrate] | 6 min | – | – | – | – | – | – | – |
| 1.45 ± 0.10 | 0.16 ± 0.03 | 310 ± 50 mg/mL (≈ 1390 mM) | hardly hydrolyzed | 100% | 6.79% | CCCC(=O)Oc1ccc(N)cc1C(=O)O [5-ASB, 5-aminosalicylic acid butyrate] | – | certain therapeutic effects | better effects than the positive control | significantly decreased | significantly better than the positive control | increased | significantly decreased | increased |
